“And” between values parts separate entries of the source, which are not always exact repeats. Equal values may be shown once.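 All cell lines were grown in 96-well plates and treated with compound for 48 hours. The concentration for 50% growth inhibition is given as GI50. TGI: total growth inhibition.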

Our source for the TGI and GI50 values is PubChem BioAssay (NCI).

Common to all, as to assay: inhibition of tumour cell growth, NCI panel, 48 h
Test [1] relates to U251 CNS.
The subject of test [2] is OVCAR-8 ovarian.
The test system of test [3] is HCC-2998 colon.
The test system of test [4] is SK-MEL-2 melanoma.
Test [5] has as its system 786-0 renal.
The subject of test [6] is HCT-15 colon.
The subject of test [7] is SW-620 colon.
Test [8] concerns SF-268 CNS.
For test [9], the system named is RXF 393 renal.
The test system of test [10] is RPMI-8226 leukemia.

Regarding `CC1=C(C(=O)Nc2ccc(C)cc2)C(c2cccc([N+](=O)[O-])c2)C(C(=O)Nc2ccc(C)cc2)=C(C)N1`, the TGI is 75.6 µM in test [1]; above 100 µM in test [2]; above 100 µM in [3]; 54.8 µM in [4]; above 100 µM in [5]; above 100 µM in test [6]. Further, the TGI in test [7] was above 100 µM; in test [8], 52.2 µM; in [9], 63.2 µM.

On to `CCc1ncc(CO)n1Cc1cccc2ccccc12`, for which the TGI in [10], in test [1], in [2], in [4], in [5] and in [6] was above 100 µM each time. Further, the TGI in test [7], in [8] and in test [9] was above 100 µM throughout.

In the case of `CN1CCN(CCC=C2c3ccccc3Sc3ccc(S(=O)(=O)N(C)C)cc32)CC1`, the GI50 in test [10] was 2.33 µM and 2.6 µM; in test [2], 5.85 µM and 15.2 µM; in [3], 1.55 µM and 2.57 µM; in test [4] it was 2.37 µM and 2.48 µM; in test [5], 4.12 µM and 6.73 µM; in test [6], 3.3 µM and 2.52 µM. In addition, the GI50 is 3.58 µM and 2.85 µM in [7]; 1.68 µM in test [9]. Also, the TGI was 6.55 µM and 8.62 µM in [10]; 24.6 µM and 36.4 µM in [2]; 3.21 µM and 6.84 µM in test [3]; 4.32 µM and 6.09 µM in [4]; 16.2 µM and 20.8 µM in test [5]; > 100 µM and 10.3 µM in [6]. Also, the TGI in test [7] was 19.9 µM and 8.62 µM; in test [9], 5.52 µM.

Take `CC(C)C1=CC2=C(C(=O)C1=O)C13CCCC(C)(C)C1CC2OC3=O` (stereo not given): the TGI in [10] came out at 39.7 µM; in test [1], 49.7 µM; in test [2] it was 35.4 µM; in test [3] it was 46.3 µM; in test [4], 47.4 µM; in test [5] it was 31.9 µM. Besides, the results for the TGI in test [6], in test [7] and in test [8] were 30.7 µM, 35.2 µM and 55.8 µM, respectively.

`CC1(C)C(CC(=O)O)CCCC1CC(=O)O` (stereo not given): the TGI in test [10], in test [1], in test [2], in test [4], in test [5] and in [6] was above 100 µM throughout. The TGI in test [7] and in test [9] was above 100 µM in each case.

Take `CCn1ncc(N=O)c1N`: the TGI in test [10], in [2], in [3], in test [4], in test [5] and in test [6] was above 100 µM throughout. Further, the TGI in test [7] and in test [8] was above 100 µM throughout.

As to `CCN(CC)CC(O)c1cc(-c2ccc(Cl)cc2)nc2c(C)c(Cl)ccc12` (stereo not given), the GI50 was 2.41 µM in test [10]; 1.77 µM in test [1]; 1.77 µM in test [3]; 2.1 µM in test [4]; 1.69 µM in test [5]; 1.61 µM in [8]. The GI50 in test [9] was 1.71 µM. The TGI in test [10] was determined as 5.71 µM; in [1], 3.33 µM; in test [3] it was 3.23 µM; in test [4], 3.61 µM; in test [5], 3.18 µM; in test [8], 3.05 µM. Further, in test [9], the TGI was 3.14 µM.

For the compound `C[C@]12CC[C@@H]3c4ccc(OC(=O)N(CCCl)CCCl)cc4CC[C@H]3[C@@H]1CC[C@@H]2OP(=O)(O)O`, the GI50 in [10] was 39.8 µM; in [1], 33.9 µM; in [2] it was above 85.6 µM; in test [3], above 74.4 µM; in [4], 41.8 µM; in test [5], 43.9 µM. Further, the GI50 was 43.5 µM in [6], above 80.7 µM in test [7] and above 75.5 µM in test [8]. Moreover, the TGI in test [10], in [1], in test [2], in test [3], in test [4] and in test [5] was above 100 µM in each case. The TGI in test [6], in test [7] and in test [8] was above 100 µM throughout.

On to `Clc1ccccc1C1SCc2nc3ccccc3n21` (stereo not given), for which the TGI is above 100 µM in test [10]; 54.8 µM in test [1]; above 100 µM in test [2]; 57.1 µM in test [4]; 88 µM in [5]; above 100 µM in test [6]. Also, the figures for the TGI in [7], in test [8] and in [9] were above 100 µM, above 100 µM and 60.5 µM, respectively.

As to `O=C(O)c1ccc(/C=N/N=C2c3ccccc3-c3ccccc32)cc1`, the TGI in test [10] is above 100 µM; in test [1], above 100 µM; in test [2] it was above 100 µM; in [4], 75.1 µM; in test [5], above 100 µM; in test [6] it was above 100 µM. In addition, the TGI in [7] was above 100 µM; in [8] it was 89.3 µM; in test [9] it was above 100 µM.

With `CC#CC#C/C(=C/C=CC(=O)OC)SC`, the TGI in test [1], in [2], in test [3], in test [4], in [5] and in test [6] was above 100 µM in each case. Also, the TGI in test [7] and in test [8] was above 100 µM in each case.

Turning to `COc1ccc(/C=C/C(=O)/C=C(O)/C=C/c2ccc(OC)c(OC)c2)cc1OC`, the GI50 in [10] is 0.559 µM; in test [1], 2.99 µM; in test [2] it was 35.5 µM; in [3], 14.5 µM; in test [4], 13.8 µM; in [5], 3.03 µM. The GI50 in [6] is 3.76 µM; in [7], 1.85 µM; in test [8], 4.77 µM. Further, the TGI in test [10] was 6.85 µM; in test [1], above 100 µM; in [2] it was 95.9 µM; in test [3], 34.9 µM; in test [4], 63.1 µM; in test [5], 25.7 µM. Besides, the TGI in test [6], in [7] and in test [8] was above 100 µM throughout.
